What was measured:
Conditions in all cases: 10 mM Tris-HCl, pH 7.4
[1] = system: DNA aptamer or structured DNA GGGACGACGGAAGGGTGTGCTGCGGTTTGGCTTCTGGCGTCGTCCC
[2] = system: DNA aptamer or structured DNA CTTACGACTTGTTCTGAGGGTCAACGGTGGTGTAGTTAGTCGTAAG
[3] = system: DNA aptamer or structured DNA CTTACGACTAGGTGTGGGTCGGCCATTAGTGGAGGGTAGTCGTAAG
[4] = system: DNA aptamer or structured DNA CTTACGACGGGTGCTGTTGGTTCTAGGGGTAGGATGGCGTCGTAAG
[5] = system: DNA aptamer or structured DNA CTTACGACGTGTGCTGTTGGTTCTAGGGGTAGGATGGCGTCGTAAG
[6] = system: DNA aptamer or structured DNA CTTACGACACATTTGGGTATTCTGGGTGAGCTGTGTCGTAAG
[7] = system: DNA aptamer or structured DNA CTTACGACAGGCGGTGTGGTGCTGGGAATAGGGATGGTGTCGTAAG
[8] = system: DNA aptamer or structured DNA TTCAAATCTAGCGCAGGTAGGGGTGTAGGTGTGGGGGTAAGTCTAGATTTGAA
[9] = system: DNA aptamer or structured DNA CTTACGACGGGTGCCGTTGGTTCTAGGGTTAGGATGGCGTCGTAAG
[10] = system: DNA aptamer or structured DNA CTTACGACATGGGATGTGTAGTTAGTGGTCGGATCCGGGTCGTAAG
[11] = system: DNA aptamer or structured DNA GGGACGACGGAGGTGTAGGGTTTAGGTAGTGGTTTGAAGTCGTCCC
[12] = system: DNA aptamer or structured DNA CTTACGACCTGCTCTGAGGGTCAACGGTGGTGTAGTCGGTCGTAAG
[13] = system: DNA aptamer or structured DNA TTCAAATCTGAGCAGCCTAGTTACTGACGGGTTTATAGTACTCGCACTGAGTCTAGATTTGAA
[14] = system: DNA aptamer or structured DNA CTTACGACTAGTTCCGGGTAGGGGTAGGCGTGGTTGTGGTCGTAAG
[15] = system: DNA aptamer or structured DNA CTTACGACAAGGGATGTGAGTTAGTGTGTCGGATCTATGTCGTAAG
[16] = system: DNA aptamer or structured DNA CTTACGACGTAGCTTCGGGTGTTCTGGGTGAGCTCTGCGTCGTAAG
[17] = system: DNA aptamer or structured DNA CTTACGACTTTGGTTTCCTCGATTCGCATGGGTGGTAAGTCGTAAG
[18] = system: DNA aptamer or structured DNA CTTACGACGTGTGCTGTTGGTTCTAGGGTTAGGATGGCGTCGTAAG
[19] = system: DNA aptamer or structured DNA CTTACGACTAGGTGTGGGTCGGCTTTTTTTTAAGGGTAGTCGTAAG
[20] = system: DNA aptamer or structured DNA CTTACGACTAGGTGTGGGTCGGCTCAATTCGGAGGGTAGTCGTAAG
[21] = system: DNA aptamer or structured DNA CTTACGACTCAGGGGGAGGCTAGGGTGCGCGGAAGCTGGTCGTAAG
[22] = system: DNA aptamer or structured DNA GGGACGACGCTAGGGGATCTTTTGGGGTTTGTATGGGCGTCGTCCC
[23] = system: DNA aptamer or structured DNA CTTACGACAAAGGCTCGGGCTCCCATGATGGATTCGTTGTCGTAAG
[24] = system: DNA aptamer or structured DNA CTTACGACCTGTTCTGAGGGTCAACCTTTGGTGTAGTGGTCGTAAG
[25] = system: DNA aptamer or structured DNA GGGACGACGGAGGTGTAGGGTTTAGGTAGTGGGTTGAAGTCGTCCC
[26] = system: DNA aptamer or structured DNA GGGACGACGGCAATTGCCGGTGCAGGATCTGAATTATCGTCGTCCC
[27] = system: DNA aptamer or structured DNA CTTACGACGGAGGTTGGGAAGGAGGGGGAGGCCGGAGAGTCGTAAG
[28] = system: DNA aptamer or structured DNA CTTACGACCACCATGGGAATCGGGTGGCTTGGAGGTGCGTCGTAAG
[29] = system: DNA aptamer or structured DNA GGGACGACTGCTTGGGTAGGTCGGGTTTGGGTTCGGCGGTCGTCCC
[30] = system: DNA aptamer or structured DNA CTTACGACACAGGGTGTGTTGTGCTCAGTGGTGTATGTGTCGTAAG
[31] = system: DNA aptamer or structured DNA CTTACGACACCGGGATCCAGATGGGTAGTTTGATGTGTGTCGTAAG
[32] = system: DNA aptamer or structured DNA CTTACGACACTGGCAGGAGGGTCGGGTGTGGGAACGTGGTCGTAAG
[33] = system: DNA aptamer or structured DNA CTTACGACCGGGATCCTTTGGGACAACCTGGTGGGCATGTCGTAAG
[34] = system: DNA aptamer or structured DNA GGGACGACGGGGCTGTGGGAGGGGGTTCATGGGTCCCGGTCGTCCC
[35] = system: DNA aptamer or structured DNA CTTACGACCGGCGGAAGGCTGGAGGGGTTGGGGGAGGTGTCGTAAG
[36] = system: DNA aptamer or structured DNA CTTACGACGACCTAGTGGGGGTAGTTATAGTTGGGTGAGTCGTAAG
For binding call in this document: call rule not given here.

NCCc1c[nH]c2ccc(O)cc12
binding call [1]: no binding
binding call [2]: no binding
binding call [3]: no binding
binding call [4]: binds
binding call [5]: binds
binding call [6]: no binding
binding call [7]: no binding
binding call [8]: no binding
binding call [9]: binds
binding call [10]: no binding
binding call [11]: no binding
binding call [12]: no binding
binding call [13]: no binding
binding call [14]: no binding
binding call [15]: no binding
binding call [16]: no binding
binding call [17]: no binding
binding call [18]: binds
binding call [19]: no binding
binding call [20]: no binding
binding call [21]: no binding
binding call [22]: binds
binding call [23]: no binding
binding call [24]: no binding
binding call [25]: no binding
binding call [26]: binds

COC(=O)[C@@H]1C2CCC(C[C@@H]1OC(=O)c1ccccc1)N2C (some centres undefined)
binding call [1]: no binding
binding call [27]: no binding
Kd [2]: 22 nM
binding call [28]: no binding
Kd [3]: 735 nM
binding call [29]: binds
Kd [4]: 107 nM
Kd [5]: 235 nM
Kd [6]: 602 nM
Kd [7]: 266 nM
binding call [30]: no binding
binding call [8]: no binding
Kd [9]: 313 nM
Kd [10]: 127 nM
binding call [11]: binds
binding call [31]: no binding
binding call [32]: no binding
Kd [12]: 189 nM
binding call [13]: no binding
Kd [14]: 70 nM
Kd [15]: 152 nM
binding call [33]: no binding
Kd [16]: 833 nM
binding call [34]: no binding
Kd [17]: 239 nM
Kd [18]: 98 nM
Kd [19]: 352 nM
Kd [20]: 461 nM
Kd [21]: 245 nM
binding call [35]: binds
binding call [22]: binds
Kd [23]: 285 nM
Kd [24]: 216 nM
binding call [25]: binds
binding call [26]: no binding

Cc1nnc2n1-c1ccc(Cl)cc1C(c1ccccc1)=NC2
binding call [1]: no binding
binding call [3]: no binding
binding call [29]: no binding
binding call [5]: no binding
binding call [6]: no binding
binding call [36]: no binding
binding call [7]: no binding
binding call [8]: no binding
binding call [10]: no binding
binding call [11]: no binding
binding call [12]: no binding
binding call [13]: no binding
binding call [16]: no binding
binding call [34]: binds
binding call [17]: no binding
binding call [19]: no binding
binding call [20]: no binding
binding call [21]: no binding
binding call [24]: no binding
binding call [25]: no binding

NCCc1ccc(O)c(O)c1
binding call [2]: no binding
binding call [3]: no binding
binding call [4]: binds
binding call [5]: binds
binding call [6]: binds
binding call [36]: no binding
binding call [7]: binds
binding call [9]: binds
binding call [10]: no binding
binding call [12]: no binding
binding call [13]: no binding
binding call [14]: binds
binding call [15]: binds
binding call [16]: no binding
binding call [17]: no binding
binding call [18]: binds
binding call [19]: no binding
binding call [20]: no binding
binding call [21]: no binding
binding call [22]: binds
binding call [23]: no binding
binding call [24]: no binding
binding call [26]: binds

— the AptaBench aptamer set (doi:10.1093/nar/gkaf219)
